# Laboratory results published in patent US10494360B2, “Inhibitors of indoleamine 2,3-dioxygenase” (NETHERLANDS TRANSLATIONAL RESEARCH CENTER B.V., priority 2016, dated 2019).
# Where “and” joins values, the source holds several entries; their conditions need not be identical. Equal values may be shown once.
# Assays:
# IDO1 [1] = molecular target: T1, IDO1 (Homo sapiens, UniProt P14902); assay: Biochemical IDO1 assay (NFK GreenScreen); parameters: Recombinant full-length IDO1 (Seegers, N., et al.) and all other assay components were diluted in IDO1 reaction buffer; made in house; conditions: for IC50: recombinant full-length IDO1 25 nM, L-tryptophan 100 μM, NFK Green detection, read-out: IC50, inhibitory potency on IDO1
# T1 sequence (P14902 whole entry, species assumed): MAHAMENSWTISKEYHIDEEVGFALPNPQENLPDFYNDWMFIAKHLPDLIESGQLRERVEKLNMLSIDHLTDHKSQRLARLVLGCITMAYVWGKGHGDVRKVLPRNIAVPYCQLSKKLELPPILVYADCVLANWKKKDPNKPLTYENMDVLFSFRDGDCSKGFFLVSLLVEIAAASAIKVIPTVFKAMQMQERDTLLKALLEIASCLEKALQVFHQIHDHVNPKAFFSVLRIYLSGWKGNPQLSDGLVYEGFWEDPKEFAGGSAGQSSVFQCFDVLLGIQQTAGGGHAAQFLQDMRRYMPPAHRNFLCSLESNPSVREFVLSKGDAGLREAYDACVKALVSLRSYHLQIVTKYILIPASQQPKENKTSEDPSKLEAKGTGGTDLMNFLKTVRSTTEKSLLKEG
# Method in brief: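 Recombinant full-length IDO1 in 50 mM NaH2PO4 pH 7.0 with 0.05% Tween-20 and 1% glycerol converted 100 μM L-tryptophan (final) over 60 min at room temperature with compound, 0.3% DMSO.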
# IDO1 [2] = molecular target: T1, IDO1; assay: Cell-based assay for IDO1 in interferon-γ stimulated A-375 melanoma cells; conditions: interferon-γ stimulation, 48 hours, read-out: IC50, cell-based IDO1 (NFK levels)
# Experimental: The biological activity of IDO1 inhibitors can be measured by applying above detection methods to cells that are treated with test compound. The expression of IDO1 can be induced in many different cell lines by stimulation with IFNγ (Takikawa, O., et al., J. Biol. Chem. 263: 2041; 1988; Seegers, et al.), or IDO1 can be expressed in cells that lack endogenous IDO1 by transfection of an expression vector containing IDO1 cDNA.
# A-375 melanoma cells were purchased from LGC Standards GmbH (Wesel, Germany) and cultured in DMEM tissue culture medium (Life Technologies, Bleiswijk, The Netherlands), supplemented with 10% (v/v) bovine calf serum. Compounds were dissolved in DMSO and diluted in DMEM. Final DMSO concentration in the assay was 0.4% (v/v). Eight thousand cells per well in 35 μl were seeded in a black 384-well tissue plate (cat. No. 781086; Greiner Bio-One GmbH, Frickenhausen, Germany) and allowed to adhere by incubation at 37° C., 95% humidity, and 5% CO2 overnight. Then, 5 μl of compound solution was added to the cells 1 hour prior to stimulation with 5 μl of 500 ng/ml interferon-γ (R&D Systems, Minneapolis, Minn., USA) diluted in DMEM medium. At the same time, 5 μl of L-tryptophan in 20 mM Hepes buffer pH 7.4 was added. Incubation was continued for 48 hours. To determine NFK levels, 12 μl NFK Green™ (NTRC, Oss, The Netherlands) was added to each well, and the plate was sealed and incubated for 4 hours at 37° C. Fluorescence was measured on an EnVision multimode reader (Perkin Elmer, Waltham, Mass., USA). IC50 were calculated using XLfit™ software (ID Business Solutions, Ltd., Surrey, U.K.).
SMILES,"relative activity of separated isomers (IDO1 [1]; less active / most active isomer of the pair, assay not given)",IC50 (IDO1 [1]),IC50 (IDO1 [2]) [µM]
"O=C1CN(C(=O)c2c(F)cccc2F)C(c2cccc(Br)c2)N1O (single isomer, unassigned) [Example 142a, 2-(3-bromophenyl)-1-(2,6-difluorobenzoyl)-3-hydroxy-imidazolidin-4-one]",less active isomer,≤ 5 µM and 1 to 5 µM,< 5
"O=C1CN(C(=O)c2ccccc2Cl)C(c2cccc(C(F)(F)F)c2)N1O (stereo not shown) [Example 2, 1-(2-Chlorobenzoyl)-3-hydroxy-2-[3-(trifluoromethyl)phenyl]imidazolidin-4-one]",–,≤ 5 µM and 1 to 5 µM,< 5
"O=C1CN(C(=O)c2c(F)cccc2Cl)C(c2cccc(C(F)(F)F)c2)N1O (stereo not shown) [Example 3, 1-(2-Chloro-6-fluoro-benzoyl)-3-hydroxy-2-[3-(trifluoromethyl)phenyl]imidazolidin-4-one]",–,≤ 1 µM,< 5
"O=C1CN(C(=O)c2c(F)cccc2F)C(c2cccc(C(F)(F)F)c2)N1O (stereo not shown) [Example 4, 1-(2,6-Difluorobenzoyl)-3-hydroxy-2-[3-(trifluoromethyl)phenyl]imidazolidin-4-one]",–,≤ 1 µM,< 5
"O=C1CN(C(=O)c2c(F)cccc2Cl)C(c2ccc(Cl)c(C(F)(F)F)c2)N1O (stereo not shown) [Example 7, 1-(2-Chloro-6-fluoro-benzoyl)-2-[4-chloro-3-(trifluoromethyl)phenyl]-3-hydroxy-imidazolidin-4-one]",–,≤ 5 µM and 1 to 5 µM,< 5
"O=C1CN(C(=O)c2c(F)cccc2F)C(c2ccc(Cl)c(C(F)(F)F)c2)N1O (stereo not shown) [Example 9, 2-[4-Chloro-3-(trifluoromethyl)phenyl]-1-(2,6-difluorobenzoyl)-3-hydroxy-imidazolidin-4-one]",–,≤ 1 µM,< 5
"O=C1CN(C(=O)c2ccccc2F)C(c2cccc(C(F)(F)F)c2)N1O (stereo not shown) [Example 10, 1-(2-Fluorobenzoyl)-3-hydroxy-2-[3-(trifluoromethyl)phenyl]imidazolidin-4-one]",–,≤ 5 µM and 1 to 5 µM,< 5
"O=C1CN(C(=O)c2ccccc2F)C(c2cccc(Cl)c2)N1O (stereo not shown) [Example 13, 2-(3-Chlorophenyl)-1-(2-fluorobenzoyl)-3-hydroxy-imidazolidin-4-one]",–,≤ 1 µM,< 5
"O=C1CN(C(=O)c2c(F)cccc2F)C(c2cccc(Cl)c2)N1O (stereo not shown) [Example 15, 2-(3-Chlorophenyl)-1-(2,6-difluorobenzoyl)-3-hydroxy-imidazolidin-4-one]",–,≤ 1 µM,< 5
"O=C1CN(C(=O)c2ccccc2)C(c2cccc(Br)c2)N1O (stereo not shown) [Example 17, 1-Benzoyl-2-(3-bromophenyl)-3-hydroxy-imidazolidin-4-one]",–,≤ 5 µM and 1 to 5 µM,< 5
"N#Cc1cc(F)c(C(=O)N2CC(=O)N(O)C2c2cccc(Br)c2)c(Cl)c1 (stereo not shown) [Example 25, 4-[2-(3-Bromophenyl)-3-hydroxy-4-oxo-imidazolidine-1-carbonyl]-3-chloro-5-fluoro-benzonitrile]",–,≤ 5 µM and 1 to 5 µM,< 5
"O=C1CN(C(=O)c2cc(F)ccc2F)C(c2cccc(Br)c2)N1O (stereo not shown) [Example 26, 2-(3-Bromophenyl)-1-(2,5-difluorobenzoyl)-3-hydroxy-imidazolidin-4-one]",–,≤ 1 µM,< 5
"O=C1CN(C(=O)c2c(F)cccc2F)C(c2cccc(Br)c2)N1O (stereo not shown) [Example 27, 2-(3-Bromophenyl)-1-(2,6-difluorobenzoyl)-3-hydroxy-imidazolidin-4-one]",–,≤ 1 µM,< 5
"O=C1CN(C(=O)c2c(F)cccc2Cl)C(c2cccc(Br)c2)N1O (stereo not shown) [Example 32, 2-(3-Bromophenyl)-1-(2-chloro-6-fluoro-benzoyl)-3-hydroxy-imidazolidin-4-one]",–,≤ 1 µM,< 5
"O=C1CN(C(=O)c2ccccc2F)C(c2cccc(Br)c2)N1O (stereo not shown) [Example 33, 2-(3-Bromophenyl)-1-(2-fluorobenzoyl)-3-hydroxy-imidazolidin-4-one]",–,≤ 1 µM,< 5
"O=C1CN(C(=O)c2ccccc2Cl)C(c2cccc(Br)c2)N1O (stereo not shown) [Example 34, 2-(3-Bromophenyl)-1-(2-chlorobenzoyl)-3-hydroxy-imidazolidin-4-one]",–,≤ 1 µM,< 5
"O=C1CN(C(=O)c2cccc(Cl)c2Cl)C(c2cccc(Br)c2)N1O (stereo not shown) [Example 35, 2-(3-Bromophenyl)-1-(2,3-dichlorobenzoyl)-3-hydroxy-imidazolidin-4-one]",–,≤ 1 µM,< 5

SMILES,"relative activity of separated isomers (IDO1 [1]; less active / most active isomer of the pair, assay not given)",IC50 (IDO1 [1]),IC50 (IDO1 [2]) [µM]
"O=C1CN(C(=O)c2ccccc2)C(c2ccc(F)c(Br)c2)N1O (stereo not shown) [Example 39, 1-Benzoyl-2-(3-bromo-4-fluoro-phenyl)-3-hydroxy-imidazolidin-4-one]",–,≤ 5 µM and 1 to 5 µM,< 5
"O=C1CN(C(=O)c2cccc(F)c2)C(c2ccc(F)c(Br)c2)N1O (stereo not shown) [Example 43, 2-(3-Bromo-4-fluoro-phenyl)-1-(3-fluorobenzoyl)-3-hydroxy-imidazolidin-4-one]",–,≤ 5 µM and 1 to 5 µM,< 5
"O=C1CN(C(=O)c2c(F)cccc2F)C(c2ccc(F)c(Br)c2)N1O (stereo not shown) [Example 44, 2-(3-Bromo-4-fluoro-phenyl)-1-(2,6-difluorobenzoyl)-3-hydroxy-imidazolidin-4-one]",–,≤ 1 µM,< 5
"O=C1CN(C(=O)c2c(F)cccc2Cl)C(c2ccc(F)c(Br)c2)N1O (stereo not shown) [Example 45, 2-(3-Bromo-4-fluoro-phenyl)-1-(2-chloro-6-fluoro-benzoyl)-3-hydroxy-imidazolidin-4-one]",–,≤ 1 µM,< 5
"O=C1CN(C(=O)c2ccccc2F)C(c2ccc(F)c(Br)c2)N1O (stereo not shown) [Example 46, 2-(3-Bromo-4-fluoro-phenyl)-1-(2-fluoro-benzoyl)-3-hydroxy-imidazolidin-4-one]",–,≤ 1 µM,< 5
"O=C1CN(C(=O)c2ccccc2F)C(c2ccc(F)c(Cl)c2)N1O (stereo not shown) [Example 51, 2-(3-Chloro-4-fluoro-phenyl)-1-(2-fluorobenzoyl)-3-hydroxy-imidazolidin-4-one]",–,≤ 1 µM,< 5
"O=C1CN(C(=O)c2c(F)cccc2F)C(c2ccc(F)c(Cl)c2)N1O (stereo not shown) [Example 52, 2-(3-Chloro-4-fluoro-phenyl)-1-(2,6-difluorobenzoyl)-3-hydroxy-imidazolidin-4-one]",–,≤ 1 µM,< 5
"O=C1CN(C(=O)c2c(F)cccc2Cl)C(c2ccc(F)c(Cl)c2)N1O (stereo not shown) [Example 53, 1-(2-Chloro-6-fluoro-benzoyl)-2-(3-chloro-4-fluoro-phenyl)-3-hydroxy-imidazolidin-4-one]",–,≤ 1 µM,< 5
"O=C1CN(C(=O)c2ccc(F)cc2F)C(c2cccc(Br)c2)N1O (stereo not shown) [Example 54, 2-(3-Bromophenyl)-1-(2,4-difluorobenzoyl)-3-hydroxy-imidazolidin-4-one]",–,≤ 1 µM,< 5
"O=C1CN(C(=O)c2ccc(F)cc2F)C(c2cccc(Cl)c2)N1O (stereo not shown) [Example 59, 2-(3-Chlorophenyl)-1-(2,4-difluorobenzoyl)-3-hydroxy-imidazolidin-4-one]",–,≤ 1 µM,< 5
"O=C1CN(C(=O)c2c(F)c(F)c(F)c(F)c2F)C(c2cccc(Br)c2)N1O (stereo not shown) [Example 62, 2-(3-Bromophenyl)-3-hydroxy-1-(2,3,4,5,6-pentafluorobenzoyl)imidazolidin-4-one]",–,≤ 1 µM,< 5
"COc1cc(F)c(C(=O)N2CC(=O)N(O)C2c2cccc(Br)c2)c(F)c1 (stereo not shown) [Example 66, 2-(3-Bromophenyl)-1-(2,6-difluoro-4-methoxy-benzoyl)-3-hydroxy-imidazolidin-4-one]",–,≤ 1 µM,< 5
"O=C1CN(C(=O)c2c(F)cccc2F)C(c2cccc([N+](=O)[O-])c2)N1O (stereo not shown) [Example 67, 1-(2,6-Difluorobenzoyl)-3-hydroxy-2-(3-nitrophenyl)imidazolidin-4-one]",–,≤ 1 µM,< 5
"O=C1CN(C(=O)c2c(F)cccc2F)C(c2cccc(I)c2)N1O (stereo not shown) [Example 71, 1-(2,6-Difluorobenzoyl)-3-hydroxy-2-(3-iodophenyl)imidazolidin-4-one]",–,≤ 1 µM,< 5
"O=C1CN(C(=O)c2c(F)cccc2Cl)C(c2cccc(I)c2)N1O (stereo not shown) [Example 72, 1-(2-chloro-6-fluoro-benzoyl)-3-hydroxy-2-(3-iodophenyl)imidazolidin-4-one]",–,≤ 1 µM,< 5
"O=C1CN(C(=O)c2ccccc2F)C(c2cccc(I)c2)N1O (stereo not shown) [Example 73, 1-(2-Fluorobenzoyl)-3-hydroxy-2-(3-iodophenyl)imidazolidin-4-one]",–,≤ 1 µM,< 5
